# Assay results as given in patent publication US20220380347A1, “INHIBITORS OF CYSTEINE PROTEASES AND METHODS OF USE THEREOF” (Pardes Biosciences, Inc., priority 2020, published 2022).
# Like-named read-outs stand apart in the source and are kept apart here.
# What was measured:
# [1] = biological target: 229E Mpro (Human coronavirus 229E, UniProt P0C6X1); test: 229E Mpro enzymatic assay (standard methods, SARS-CoV2 Mpro assay given as exemplary); type: biochemical, human coronavirus (HCov) 229E
# Sequence of 229E Mpro (P0C6X1 2966-3267): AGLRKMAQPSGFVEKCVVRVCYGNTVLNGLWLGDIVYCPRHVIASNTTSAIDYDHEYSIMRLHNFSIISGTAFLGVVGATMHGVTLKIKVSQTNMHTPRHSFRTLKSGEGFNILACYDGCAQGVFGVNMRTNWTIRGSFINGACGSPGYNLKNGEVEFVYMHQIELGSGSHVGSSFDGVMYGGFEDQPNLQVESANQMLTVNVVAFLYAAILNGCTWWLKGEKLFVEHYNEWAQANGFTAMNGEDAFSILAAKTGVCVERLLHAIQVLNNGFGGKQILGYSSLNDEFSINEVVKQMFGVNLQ
# Summary of the method: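 Run by standard methods, with the SARS-CoV-2 Mpro protocol given as the model: E. coli-expressed C-His6 protease at 25 nM and substrate at 25 μM (Km 13.5 μM). Buffer pH 7.3 with 5 mM TCEP and 0.1% BSA; % inhibition versus controls fitted to variable-slope log(inhibitor)-response for IC50.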
# [2] = biological target: COVID-19 (nCoV-2019, SARS-CoV2) Mpro (Severe acute respiratory syndrome coronavirus 2, UniProt P0DTD1); test: COVID-19 (nCoV-2019, SARS-CoV2) Mpro enzymatic assay; type: biochemical; conditions: 25 nM Mpro, 25 μM substrate; read-out: COVID-19 Mpro IC50
# [3] = tested on: HCoV 229E; test: HCoV 229E cytopathic effect (CPE) assay, CellTiter Glo; type: cell-based, human coronavirus (HCov) 229E; conditions: protection of virus-induced CPE
# Experimental: Example 238: Evaluation of antiviral activity of compounds against human coronavirus (HCov) 229E and OC43 in the cytopathic effect (CPE) assays
# Compounds were assayed using standard methods against multiple coronaviral strains, including HCoV 229E and OC43 strains. The antiviral activity of compounds was calculated based on the protection of the virus-induced CPE at each concentration normalized by the virus control.
# Cytopathic effect (CPE) was measured by CellTiter Glo following the manufacturer's manual. The antiviral activity of compounds was calculated based on the protection of the virus-induced CPE at each concentration normalized by the virus control.
# Cell viability was measured with CellTiter Glo.
# [4] = tested on: HCov OC43; test: HCoV OC43 cytopathic effect (CPE) assay, CellTiter Glo; type: cell-based, human coronavirus (HCov) OC43
# [5] = Betacoronavirus 1, OC43, read-out: OC43 IC50 (uM) MEDIAN, median
# [6] = read-out: OC43 IC50 (uM) MEDIAN, median
smiles,measurement,setting,value
"CC(C)(C)c1ccc(N(C(=O)[C@H]2C[C@@H](O)CN2C#N)C(C(=O)NCCN2CCOCC2)c2cccnc2)cc1 (single isomer, unassigned) [587 Isomer 1]",EC50,[1]; 229E Mpro EC50,< 2000 nM
same,IC50,[2],< 2 µM
same,EC50,[3]; unidentified human coronavirus,< 2000 nM
same,IC50,[4]; [5],< 2 µM
"C[C@@]1(O)C[C@H](C(=O)N(c2ccc(S(F)(F)(F)(F)F)cc2)C(C(=O)NC2CCC(F)(F)CC2)c2cccnc2)N(C#N)C1 (single isomer, unassigned) [Compound 1156 Isomer 2]",EC50,[1]; read-out: 229E Mpro EC50,< 2000 nM
same,IC50,[2],< 2 µM
same,EC50,[3],2000 to 10000 nM
same,IC50,[4]; [6],< 2 µM
"CC(C)(C)c1ccc(N(C(=O)[C@H]2C[C@@H](O)CN2C#N)C(C(=O)Nc2c(Cl)cccc2Cl)c2cccnc2)cc1 (stereo partly drawn) [Compound 591, (2R,4R)—N-(4-(tert-butyl)phenyl)-1-cyano-N-(2-((2,6-dichlorophenyl)amino)-2-oxo-1-(pyridin-3-yl)ethyl)-4-hydroxypyrrolidine-2-carboxamide]",EC50,[1]; 229E Mpro EC50,2000 to 10000 nM
same,IC50,[2],2 to 10 µM
same,EC50,[3]; unidentified human coronavirus,2000 to 10000 nM
same,IC50,[4]; [5],> 30 µM
"N#CN1C[C@H](O)C[C@@H]1C(=O)N(c1ccc(C2CC2)cc1F)C(C(=O)NC1CCCCC1)c1cccnc1 (single isomer, unassigned) [Compound 763 Isomer 2]",EC50,[1]; 229E Mpro EC50,2000 to 10000 nM
same,IC50,[2],10 to 30 µM
same,EC50,[3]; unidentified human coronavirus,< 2000 nM
same,IC50,[4]; [6],2 to 10 µM
"CC(C)(C)c1ccc(N(C(=O)[C@H]2C[C@@H](F)CN2C#N)C(C(=O)NC2CCCCC2)c2cccnc2)cc1 (single isomer, unassigned) [Compound 870 Isomer 2]",EC50,[1]; read-out: 229E Mpro EC50,< 2000 nM
same,IC50,[2],2 to 10 µM
same,EC50,[3],2000 to 10000 nM
same,IC50,[4]; [6],< 2 µM
"N#CN1C[C@H](O)C[C@@H]1C(=O)N(c1ccc(C2CC2)cc1)C(C(=O)NC1CCCCC1)c1cccnc1 (single isomer, unassigned) [723 Isomer 2]",EC50,[1]; 229E Mpro EC50,2000 to 10000 nM
same,IC50,[2],10 to 30 µM
same,EC50,[3],2000 to 10000 nM
same,IC50,[4]; [6],2 to 10 µM
"CN1CCN(C(=O)C(c2cccnc2)N(C(=O)[C@H]2CCCN2C#N)c2ccc(C(C)(C)C)cc2)CC1 (mixture of isomers) [Compound 967, (2R)—N-(4-(tert-butyl)phenyl)-1-cyano-N-(2-(4-methylpiperazin-1-yl)-2-oxo-1-(pyridin-3-yl)ethyl)pyrrolidine-2-carboxamide]",EC50,[1]; 229E Mpro EC50,< 2000 nM
same,IC50,[2],2 to 10 µM
same,EC50,[3]; unidentified human coronavirus,2000 to 10000 nM
same,IC50,[4]; [5],2 to 10 µM
"COCCNC(=O)C(c1cccnc1)N(C(=O)[C@H]1C[C@@H](O)CN1C#N)c1ccc(C(C)(C)C)cc1 (single isomer, unassigned) [627 Isomer 2]",EC50,[1]; read-out: 229E Mpro EC50,< 2000 nM
same,IC50,[2],2 to 10 µM
same,EC50,[3],2000 to 10000 nM
same,IC50,[4]; [6],10 to 30 µM
"N#CN1C[C@H](O)C[C@@H]1C(=O)N(c1ccc2c(c1)NCCC2)C(C(=O)NC1CCCCC1)c1cccnc1 (single isomer, unassigned) [Compound 755 Isomer 2]",EC50,[1]; 229E Mpro EC50,2000 to 10000 nM
same,IC50,[2],10 to 30 µM
same,EC50,[3],< 2000 nM
same,IC50,[4]; [6],2 to 10 µM
"CC(C)(C)c1ccc(N(C(=O)[C@H]2C[C@H](Oc3ccccc3)CN2C#N)C(C(=O)NC2CCCCC2)c2cccnc2)cc1 (single isomer, unassigned) [Compound 308 Isomer 2]",EC50,[1]; 229E Mpro EC50,< 2000 nM
same,IC50,[2],< 2 µM
same,EC50,[3]; unidentified human coronavirus,< 2000 nM
same,IC50,[4]; [6],> 30 µM
CC(C)(C)c1ccc(N(C(=O)C2CS(=O)(=O)CCN2C#N)C(C(=O)NC2CCCCC2)c2cccnc2)cc1 (centres unmarked) [Compound 226],EC50,[1]; 229E Mpro EC50,< 2000 nM
same,IC50,[2],< 2 µM
same,EC50,[3]; unidentified human coronavirus,2000 to 10000 nM
same,IC50,[4]; [5],2 to 10 µM
"CC(C)(C)c1ccc(N(C(=O)[C@H]2CC(F)(F)CN2C#N)C(C(=O)NC2CCCCC2)c2cccnc2)cc1 (single isomer, unassigned) [Compound 876 Isomer 1]",EC50,[1]; 229E Mpro EC50,< 2000 nM
same,IC50,[2],2 to 10 µM
same,EC50,[3]; unidentified human coronavirus,< 2000 nM
same,IC50,"[4]; read-out: OC43 IC50 (uM) MEDIAN, median, listed as 876 Isomer 1",10 to 30 µM
"CN(C)CCNC(=O)C(c1cccnc1)N(C(=O)[C@H]1CCCN1C#N)c1ccc(C(C)(C)C)cc1 (single isomer, unassigned) [Compound 435 Isomer 1]",EC50,[1]; 229E Mpro EC50,< 2000 nM
same,IC50,[2],2 to 10 µM
same,EC50,[3]; unidentified human coronavirus,2000 to 10000 nM
same,IC50,"[4]; read-out: OC43 IC50 (uM) MEDIAN, median, listed as 435 Isomer 1",2 to 10 µM
"Cc1nc2ccc(N(C(=O)[C@H]3C[C@@H](O)CN3C#N)C(C(=O)NC3CCCCC3)c3cccnc3)cc2[nH]1 (stereo partly drawn) [Compound 759, (2R,4R)-1-cyano-N-(2-(cyclohexylamino)-2-oxo-1-(pyridin-3-yl)ethyl)-4-hydroxy-N-(2-methyl-1H-benzo[d]imidazol-6-yl)pyrrolidine-2-carboxamide]",EC50,[1]; 229E Mpro EC50,> 30000 nM
same,IC50,[2],> 30 µM
same,EC50,[3]; unidentified human coronavirus,< 2000 nM
same,IC50,[4]; [5],> 30 µM
